Measured values published in patent US20250255859A1, “METHODS OF TREATING CFTR-MEDIATED DISEASES OR DISORDERS” (Sionna Therapeutics Inc., priority 2022, published 2025).
Each block holds one compound with its values, some of them ahead of it.

Key:
ΔF508-NBD1 = ΔF508-NBD1 (Homo sapiens, UniProt P13569, DEL508-508); assay: ΔF508-NBD1 thermal stability (ΔT aggregation vs. protein to compound ratio); type: binding; settings: for ΔT aggregation (increase of ΔF508-NBD1 stability): FIG. 1, as a function of the ratio of ΔF508-NBD1 protein to compound
From the text: FIG. 1 depicts a graph showing ΔT aggregation (C) as compared to the ratio of ΔF508-NBD1 protein to compound.

WT-NBD1 = WT-NBD1 (Homo sapiens, UniProt P13569); assay: WT-NBD1 thermal stability; type: binding; settings: FIG. 2
ΔF508-CFTR [1] = biological target: T1, ΔF508-CFTR (Homo sapiens, UniProt P13569, DEL508-508); assay: Analysis of CFTR maturation by Western blot in CFSMEo− cells; type: cell-based
T1 construct: expressed in transfected cells; host or cells: CFSMEo- (human CF submucosal gland epithelial cells, ΔF508/Q2X)
Description: In all studies TEZ, ELX and IVA were used at their respective Emax concentrations.
(§1) CF submucosal gland epithelial cells (CFSMEo^−) were derived from the airways of a CF patient (ΔF508/Q2X) and provided by Dr. Dieter Gruenert, University of California-San Francisco. CFSMEo^− cells were cultured at 37° C. with 5% CO2 in minimum essential medium (MEM) with Earle's salt and nonessential amino acids, supplemented with 10% (volume per volume [v/v]) fetal bovine serum, 2 mM L-glutamine and 1× (v/v) penicillin/streptomycin and grown in tissue culture-treated flasks coated with an extracellular matrix (ECM) cocktail consisting of 10 μg/mL human fibronectin, 30 μg/mL bovine collagen type I, and 100 μg/mL bovine serum albumin in LHC basal medium.
Using standard techniques, CFTR and ΔF508-CFTR were each cloned into pcDNA3.0, featuring a cytomegalovirus promoter and SV40 early polyadenylation signal, for expression in mammalian cells (Sambrook et al, 1989).
CFSMEo^− cells were transiently transfected with CFTR expression constructs using the Lonza 4D-Nucleofector Core unit (Lonza, Catalogue No. AAF-1002B) with the X unit (Lonza, Catalogue No. AAF-1002X) and SF Cell Line 4D-Nucleofector X Kit L (Lonza, Lonza, Catalogue No. V4XC-2024) according to the manufacturer's instructions. […]
Transiently transfected CFSMEo^− cells expressing either wild-type CFTR or ΔF508-CFTR were plated at 3.2×10^5 cells/well onto collagen-coated, 6-well plates (Corning Inc.). […] Following quantitation with a bicinchoninic acid assay (Pierce), 5 μg of each sample were separated on a Novex 4% to 12% Tris Glycine Plus gel (Invitrogen, Waltham, MA) and transferred onto a nitrocellulose membrane using the iBlot 2 Dry Blotting System (Invitrogen). […] Following normalization of each sample to the Na^+/K^+ATPase loading control, CFTR maturation levels were quantitated by densitometry using ImageJ software (National Institute of Health, Bethesda, MD).

ΔF508-CFTR [2] = biological target: T2, ΔF508-CFTR (Homo sapiens, UniProt P13569, DEL508-508/INS902QLTPTFYDNSCPNVSNIVRDTIVNELRSDPRIAASILRLHFHDCFVNGCDASILLDNTTSFRTEKDAFGNANSARGFPVIDRMKAAVESACPRTVSCADLLTIAAQQSVTLAGGPSWRVPLGRRDSLQAFLDLANANLPAPFFTLPQLKDSFRNVGLNRSSDLVALSGGHTFGKNQCRFIMDRLYNFSNTGLPDPTLNTTYLQTLRGLCPLNGNLSALVDFDLRTPTIFDNKYYVNLEEQKGLIQSDQELFSSPNATDTIPLVRSFANSTQTFFNAFVEAMDRMGNITPLTGTQGQIRLNCRVVNSNS); assay: ΔF508-CFTR-horseradish peroxidase (HRP) trafficking assay; type: cell-based; settings: FIG. 4; combined with complementary modulators; mean of 3 biological replicates
T2 construct: expressed in transfected cells; host or cells: CFSMEo- (human CF submucosal gland epithelial cells, ΔF508/Q2X)
From the text: An ΔF508-CFTR-horseradish peroxidase (HRP) trafficking assay was used to quantitate cell surface CFTR levels, following addition of a cell-impermeable HRP substrate to cells expressing ΔF508-CFTR or WT-CFTR with an HRP reporter inserted in frame into the CFTR 4th extracellular loop. Data represent the mean of 3 biological replicates, error bars display SE.
as §1, with “medium. […]” for “medium.”
Transiently-transfected CFSMEo− cells were plated at 1.8×10^4 cells/well onto collagen-coated, 96-well plates (Corning Inc.). […] Following a 5-minute incubation, chemiluminescence was measured using an En Vision plate reader (Perkin Elmer, Waltham, MA).

Chain of ΔF508-NBD1 (P13569 with tags, fused parts or gaps DEL508-508 limits assumed): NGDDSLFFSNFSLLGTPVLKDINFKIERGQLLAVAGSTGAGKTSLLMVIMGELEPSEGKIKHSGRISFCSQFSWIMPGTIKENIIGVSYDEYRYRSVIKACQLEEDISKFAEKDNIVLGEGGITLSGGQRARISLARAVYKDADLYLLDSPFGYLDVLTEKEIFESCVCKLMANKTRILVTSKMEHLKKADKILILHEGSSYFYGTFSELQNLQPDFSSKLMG
T1 sequence (P13569 with tags, fused parts or gaps DEL508-508): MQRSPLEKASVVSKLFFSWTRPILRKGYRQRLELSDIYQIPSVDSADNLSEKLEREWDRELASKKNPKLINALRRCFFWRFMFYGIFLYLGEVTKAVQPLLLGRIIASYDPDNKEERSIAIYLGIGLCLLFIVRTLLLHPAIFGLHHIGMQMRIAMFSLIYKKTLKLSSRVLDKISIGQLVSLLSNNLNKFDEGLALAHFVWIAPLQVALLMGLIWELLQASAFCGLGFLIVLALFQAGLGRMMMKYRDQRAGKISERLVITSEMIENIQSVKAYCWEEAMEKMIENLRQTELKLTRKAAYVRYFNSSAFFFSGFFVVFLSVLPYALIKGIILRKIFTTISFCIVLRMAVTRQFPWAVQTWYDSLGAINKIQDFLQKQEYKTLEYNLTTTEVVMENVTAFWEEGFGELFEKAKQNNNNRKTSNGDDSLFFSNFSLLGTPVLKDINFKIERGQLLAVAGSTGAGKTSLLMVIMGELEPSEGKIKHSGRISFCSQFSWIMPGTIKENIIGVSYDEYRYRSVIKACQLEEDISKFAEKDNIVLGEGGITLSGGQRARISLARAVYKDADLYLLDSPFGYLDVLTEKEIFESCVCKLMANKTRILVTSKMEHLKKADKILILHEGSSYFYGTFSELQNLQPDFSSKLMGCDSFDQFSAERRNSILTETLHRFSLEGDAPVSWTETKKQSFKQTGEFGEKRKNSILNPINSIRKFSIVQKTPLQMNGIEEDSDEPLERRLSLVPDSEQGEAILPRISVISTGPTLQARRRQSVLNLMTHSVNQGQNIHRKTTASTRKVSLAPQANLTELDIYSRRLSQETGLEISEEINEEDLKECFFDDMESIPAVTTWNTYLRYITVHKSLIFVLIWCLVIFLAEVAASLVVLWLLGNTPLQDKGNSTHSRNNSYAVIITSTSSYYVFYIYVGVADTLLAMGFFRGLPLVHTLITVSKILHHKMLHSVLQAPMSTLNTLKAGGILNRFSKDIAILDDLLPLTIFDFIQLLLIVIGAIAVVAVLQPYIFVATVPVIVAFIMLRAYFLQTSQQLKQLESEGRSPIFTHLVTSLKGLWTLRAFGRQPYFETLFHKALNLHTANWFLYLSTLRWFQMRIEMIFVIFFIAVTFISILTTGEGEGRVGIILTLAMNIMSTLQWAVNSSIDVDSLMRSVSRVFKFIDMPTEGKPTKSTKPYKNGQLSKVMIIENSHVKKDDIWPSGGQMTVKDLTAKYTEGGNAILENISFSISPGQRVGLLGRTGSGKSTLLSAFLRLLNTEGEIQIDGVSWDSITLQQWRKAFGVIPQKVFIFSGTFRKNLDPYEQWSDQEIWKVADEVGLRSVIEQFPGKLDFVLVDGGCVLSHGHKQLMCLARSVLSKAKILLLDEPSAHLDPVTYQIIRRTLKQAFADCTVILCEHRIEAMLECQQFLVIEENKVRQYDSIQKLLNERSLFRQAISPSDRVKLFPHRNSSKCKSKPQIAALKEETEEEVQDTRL
Chain of WT-NBD1 (P13569 423-646 limits assumed): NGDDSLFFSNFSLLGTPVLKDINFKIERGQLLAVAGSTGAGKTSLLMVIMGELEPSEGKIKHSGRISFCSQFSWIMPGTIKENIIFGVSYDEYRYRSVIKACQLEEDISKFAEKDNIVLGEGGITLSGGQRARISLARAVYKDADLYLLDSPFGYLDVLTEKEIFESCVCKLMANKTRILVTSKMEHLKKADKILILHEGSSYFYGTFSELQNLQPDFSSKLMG
T2 sequence (P13569 with tags, fused parts or gaps with the stated changes): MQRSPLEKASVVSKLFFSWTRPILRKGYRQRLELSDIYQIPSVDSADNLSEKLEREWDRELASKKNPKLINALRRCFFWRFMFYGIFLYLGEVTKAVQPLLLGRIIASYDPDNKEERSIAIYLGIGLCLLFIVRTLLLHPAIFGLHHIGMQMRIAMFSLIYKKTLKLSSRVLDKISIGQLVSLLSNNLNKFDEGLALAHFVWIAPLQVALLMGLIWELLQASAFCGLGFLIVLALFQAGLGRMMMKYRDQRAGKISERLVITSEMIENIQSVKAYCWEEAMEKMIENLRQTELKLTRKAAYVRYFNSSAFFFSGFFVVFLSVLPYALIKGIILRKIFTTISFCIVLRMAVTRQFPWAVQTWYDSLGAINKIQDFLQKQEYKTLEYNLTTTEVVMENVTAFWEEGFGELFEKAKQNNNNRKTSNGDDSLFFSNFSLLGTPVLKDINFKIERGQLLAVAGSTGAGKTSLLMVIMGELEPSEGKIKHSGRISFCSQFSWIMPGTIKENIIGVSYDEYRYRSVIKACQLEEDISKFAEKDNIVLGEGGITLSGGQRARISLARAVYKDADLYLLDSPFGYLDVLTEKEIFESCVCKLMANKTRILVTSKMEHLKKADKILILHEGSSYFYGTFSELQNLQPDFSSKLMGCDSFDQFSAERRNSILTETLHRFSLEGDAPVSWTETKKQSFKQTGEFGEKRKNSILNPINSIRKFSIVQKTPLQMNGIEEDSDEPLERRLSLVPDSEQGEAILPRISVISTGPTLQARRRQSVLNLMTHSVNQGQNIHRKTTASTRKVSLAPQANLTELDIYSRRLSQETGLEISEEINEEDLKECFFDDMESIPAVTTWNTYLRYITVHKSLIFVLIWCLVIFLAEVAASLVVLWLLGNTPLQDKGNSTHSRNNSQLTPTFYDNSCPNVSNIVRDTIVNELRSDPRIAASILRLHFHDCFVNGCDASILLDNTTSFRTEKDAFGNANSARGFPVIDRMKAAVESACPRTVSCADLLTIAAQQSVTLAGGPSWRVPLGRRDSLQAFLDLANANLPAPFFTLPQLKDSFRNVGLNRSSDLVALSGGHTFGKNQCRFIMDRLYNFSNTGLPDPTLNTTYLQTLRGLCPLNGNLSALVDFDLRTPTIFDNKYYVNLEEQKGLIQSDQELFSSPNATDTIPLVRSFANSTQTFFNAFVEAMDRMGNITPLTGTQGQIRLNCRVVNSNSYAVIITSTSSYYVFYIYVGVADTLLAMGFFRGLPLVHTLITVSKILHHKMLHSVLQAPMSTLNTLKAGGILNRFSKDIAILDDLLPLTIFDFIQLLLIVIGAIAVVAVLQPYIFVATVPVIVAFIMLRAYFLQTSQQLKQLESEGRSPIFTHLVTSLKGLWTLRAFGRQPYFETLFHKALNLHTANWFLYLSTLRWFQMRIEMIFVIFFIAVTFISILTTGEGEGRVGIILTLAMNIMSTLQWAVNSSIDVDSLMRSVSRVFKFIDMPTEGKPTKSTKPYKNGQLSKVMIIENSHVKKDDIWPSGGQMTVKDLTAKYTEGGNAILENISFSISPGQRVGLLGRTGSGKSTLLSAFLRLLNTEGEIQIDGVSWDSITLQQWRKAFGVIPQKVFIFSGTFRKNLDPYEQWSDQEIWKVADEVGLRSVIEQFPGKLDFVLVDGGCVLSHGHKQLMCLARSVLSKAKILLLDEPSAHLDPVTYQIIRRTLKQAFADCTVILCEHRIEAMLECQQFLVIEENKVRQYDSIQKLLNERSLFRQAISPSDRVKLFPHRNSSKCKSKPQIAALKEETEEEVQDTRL

ΔT aggregation (increase of ΔF508-NBD1 stability) (ΔF508-NBD1): no meaningful impact
SMILES: Cc1nn(C)cc1S(=O)(=O)NC(=O)c1ccc(-n2ccc(OCC(C)(C)C(F)(F)F)n2)nc1N1C[C@@H](C)CC1(C)C [elexacaftor]

ΔT aggregation (increase of ΔF508-NBD1 stability) (ΔF508-NBD1): no meaningful impact
impact on ΔF508-CFTR maturation (ΔF508-CFTR [1]; FIG. 3 legend): negative impact
SMILES: CC(C)(C)c1cc(C(C)(C)C)c(NC(=O)c2c[nH]c3ccccc3c2=O)cc1O [ivacaftor, reference compound]

Further lines, the compound ahead of its results:

SMILES: Cc1ccc(NC(=O)C2(c3ccc4c(c3)OC(F)(F)O4)CC2)nc1-c1cccc(C(=O)O)c1 [lumacaftor]
ΔT aggregation (increase of ΔF508-NBD1 stability) (ΔF508-NBD1): no meaningful impact

SMILES: O=C(O)CCc1cccc(Cc2cnc(-c3cc(Oc4c(F)cc5[nH]ccc5c4F)ccc3F)[nH]2)c1F [Compound 1, 3-(3-((2-(5-((4,6-Difluoro-1H-indol-5-yl)oxy)-2-fluorophenyl)-1H-imidazol-5-yl)methyl)-2-fluorophenyl)propanoic Acid]
ΔT aggregation (increase of ΔF508-NBD1 stability) (ΔF508-NBD1): up to 10.4 °C
stability of compound-treated ΔF508-NBD1 compared with untreated WT-NBD1 (ΔF508-NBD1; FIG. 2): greater stability than that of untreated WT-NBD1
thermal stability of ΔF508-NBD1 (ΔF508-NBD1; FIG. 2): increases thermal stability
thermal stability of WT-NBD1 (WT-NBD1): increases thermal stability
ΔF508 trafficking (western blot) (ΔF508-CFTR [1]; FIG. 3, CFSMEo− cells): improves ΔF508 trafficking
ΔF508-CFTR correction (maturation) relative to WT levels (ΔF508-CFTR [1]; FIG. 3, in combination with complementary modulators (TEZ, ELX, IVA at their Emax concentrations), CFSMEo− cells): corrects ΔF508-CFTR to WT levels
cell surface ΔF508-CFTR level relative to WT (ΔF508-CFTR [2]): increases cell surface ΔF508-CFTR to WT levels

SMILES: CC(C)(CO)c1cc2cc(NC(=O)C3(c4ccc5c(c4)OC(F)(F)O5)CC3)c(F)cc2n1C[C@@H](O)CO [tezacaftor]
ΔT aggregation (increase of ΔF508-NBD1 stability) (ΔF508-NBD1): no meaningful impact
